Test results taken from PubChem BioAssay (NCI).
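1) Cells in 96-well plates. 2) Compound, 48 h, 5 concentrations. 3) Linear interpolation between surrounding doses. 4) Unreached endpoint = highest concentration. GI50 marks 50% less growth. TGI: concentration producing complete growth inhibition.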

Tests used:
Experiment in all cases: inhibition of tumour cell growth, NCI panel, 48 h
KM12 colon = test system: KM12 colon
SNB-75 CNS = test system: SNB-75 CNS
UO-31 renal = test system: UO-31 renal
NCI-H23 lung = test system: NCI-H23 lung
SF-268 CNS = test system: SF-268 CNS
SF-539 CNS = test system: SF-539 CNS
A549 NSCLC = test system: A549 NSCLC
COLO 205 colon = test system: COLO 205 colon
NCI/ADR-RES ovarian = test system: NCI/ADR-RES ovarian
MDA-MB-231 breast = test system: MDA-MB-231 breast

O=S1(=O)c2ccccc2NC(c2ccc3ccccc3c2)CC1c1ccccc1F (centres undefined)
TGI (KM12 colon): > 100 µM
TGI (SNB-75 CNS): > 100 µM
TGI (UO-31 renal): > 100 µM
TGI (NCI-H23 lung): > 100 µM
TGI (SF-268 CNS): > 100 µM
TGI (SF-539 CNS): > 100 µM
TGI (A549 NSCLC): > 100 µM
TGI (COLO 205 colon): > 100 µM

O=CC[C@H]1C(=O)C[C@@H]2CCC[C@@H]21
TGI (KM12 colon): > 100 µM
TGI (SNB-75 CNS): > 100 µM
TGI (NCI-H23 lung): > 100 µM
TGI (SF-268 CNS): > 100 µM
TGI (SF-539 CNS): > 100 µM
TGI (A549 NSCLC): > 100 µM
TGI (COLO 205 colon): > 100 µM

Clc1cc2nsnc2c(Cl)n1
TGI (KM12 colon): > 100 µM
TGI (UO-31 renal): 39.8 µM
TGI (NCI-H23 lung): 39.9 µM
TGI (SF-268 CNS): 79.4 µM
TGI (SF-539 CNS): 46.1 µM
TGI (A549 NSCLC): > 100 µM
TGI (COLO 205 colon): 31.7 µM

O=C1/C(=C/c2ccccc2)CN(C(=O)C(Cl)(Cl)Cl)C/C1=C\c1ccccc1
TGI (KM12 colon): 3.4 µM
TGI (SNB-75 CNS): 12.3 µM
TGI (UO-31 renal): 7.03 µM
TGI (NCI-H23 lung): 6.8 µM
TGI (SF-268 CNS): 13.4 µM
TGI (SF-539 CNS): 9.91 µM
TGI (A549 NSCLC): 32.4 µM
TGI (COLO 205 colon): 4.69 µM

CC1(c2ccc(F)cc2)C(C#N)C(=O)NC(=O)C1C#N (centres undefined)
TGI (KM12 colon): > 100 µM
TGI (SNB-75 CNS): > 100 µM
TGI (UO-31 renal): > 100 µM
TGI (NCI-H23 lung): > 100 µM
TGI (SF-268 CNS): > 100 µM
TGI (SF-539 CNS): > 100 µM
TGI (A549 NSCLC): > 100 µM
TGI (COLO 205 colon): > 100 µM

CNS(=O)(=O)NNS(=O)(=O)c1ccc2ccccc2c1
TGI (KM12 colon): > 100 µM
TGI (SNB-75 CNS): > 100 µM
TGI (UO-31 renal): > 100 µM
TGI (NCI-H23 lung): > 100 µM
TGI (SF-268 CNS): > 100 µM
TGI (SF-539 CNS): > 100 µM
TGI (A549 NSCLC): > 100 µM
TGI (COLO 205 colon): > 100 µM

CCOC(=O)C1=C(C)NC(=S)NC1c1ccccc1 (centres undefined)
TGI (KM12 colon): > 100 µM
TGI (SNB-75 CNS): > 100 µM
TGI (UO-31 renal): > 57.1 µM
TGI (NCI-H23 lung): > 100 µM
TGI (SF-268 CNS): > 100 µM
TGI (SF-539 CNS): > 100 µM
TGI (A549 NSCLC): > 100 µM
TGI (COLO 205 colon): > 60.7 µM

O=C(N/C(=C\c1ccc(/C=C(\NC(=O)c2ccccc2)c2nc3cc([N+](=O)[O-])ccc3[nH]2)cc1)c1nc2cc([N+](=O)[O-])ccc2[nH]1)c1ccccc1
TGI (SNB-75 CNS): > 100 µM
TGI (UO-31 renal): > 100 µM
TGI (NCI-H23 lung): > 100 µM
TGI (SF-268 CNS): > 100 µM
TGI (SF-539 CNS): > 100 µM
TGI (A549 NSCLC): > 100 µM
TGI (COLO 205 colon): > 100 µM

O=C(/C=C/c1ccccc1)NC1C=Nc2ccc(Cl)cc2NC1=O (centres undefined)
TGI (KM12 colon): 56.8 µM
TGI (SNB-75 CNS): 62.9 µM
TGI (UO-31 renal): 87.8 µM
TGI (NCI-H23 lung): > 100 µM
TGI (SF-268 CNS): > 100 µM
TGI (SF-539 CNS): 88.2 µM
TGI (A549 NSCLC): > 100 µM
TGI (COLO 205 colon): 33.9 µM

Cc1ccc(NC2=C(Cl)C(=O)N(Cc3ccccc3)C2=O)cc1O
GI50 (KM12 colon): 41.4 µM
TGI (KM12 colon): > 100 µM
GI50 (NCI/ADR-RES ovarian): 30.8 µM
TGI (NCI/ADR-RES ovarian): > 100 µM
GI50 (UO-31 renal): 82.2 µM
TGI (UO-31 renal): > 100 µM
GI50 (NCI-H23 lung): 34.3 µM
TGI (NCI-H23 lung): > 100 µM
GI50 (MDA-MB-231 breast): 21 µM
TGI (MDA-MB-231 breast): 61.5 µM
GI50 (SF-268 CNS): 31.7 µM
TGI (SF-268 CNS): > 100 µM
GI50 (SF-539 CNS): 25 µM
TGI (SF-539 CNS): 76 µM
GI50 (A549 NSCLC): 42.1 µM
TGI (A549 NSCLC): > 100 µM
GI50 (COLO 205 colon): 49 µM
TGI (COLO 205 colon): > 100 µM

COc1cc2c(cc1OC)-c1c3cc(O)ccc3nn[n+]1CC2
TGI (KM12 colon): > 100 µM
TGI (SNB-75 CNS): > 100 µM
TGI (NCI-H23 lung): > 100 µM
TGI (SF-268 CNS): > 100 µM
TGI (SF-539 CNS): > 100 µM
TGI (A549 NSCLC): > 100 µM
TGI (COLO 205 colon): > 100 µM

CC(=O)NNc1nc(C)c(C(=O)NNC(=O)C(=O)Nc2ccc(Cl)cc2)s1
TGI (KM12 colon): > 100 µM
TGI (UO-31 renal): > 100 µM
TGI (NCI-H23 lung): > 100 µM
TGI (SF-268 CNS): > 100 µM
TGI (SF-539 CNS): > 100 µM
TGI (A549 NSCLC): > 100 µM
TGI (COLO 205 colon): > 100 µM

COc1ccc(-c2nc3sccn3c2/C(N)=N/C(=N)N)cc1OC
GI50 (KM12 colon): 24.7 µM
TGI (KM12 colon): 81.8 µM
GI50 (NCI/ADR-RES ovarian): > 100 µM
TGI (NCI/ADR-RES ovarian): > 100 µM
GI50 (UO-31 renal): 7.37 µM
TGI (UO-31 renal): 40.2 µM
GI50 (NCI-H23 lung): > 100 µM
TGI (NCI-H23 lung): > 100 µM
GI50 (MDA-MB-231 breast): 17.8 µM
TGI (MDA-MB-231 breast): 39.3 µM
GI50 (SF-268 CNS): 50.3 µM
TGI (SF-268 CNS): > 100 µM
GI50 (SF-539 CNS): 25.7 µM
TGI (SF-539 CNS): 66 µM
GI50 (A549 NSCLC): > 100 µM
TGI (A549 NSCLC): > 100 µM
GI50 (COLO 205 colon): 56.6 µM
TGI (COLO 205 colon): > 100 µM

COc1cc(CNc2cnc3cc(N)cc(N)c3n2)cc(OC)c1
GI50 (KM12 colon): 22.5 µM
TGI (KM12 colon): 71.8 µM
GI50 (NCI/ADR-RES ovarian): 34.3 µM
TGI (NCI/ADR-RES ovarian): > 100 µM
GI50 (UO-31 renal): 38.2 µM
TGI (UO-31 renal): > 100 µM
GI50 (NCI-H23 lung): 17.3 µM
TGI (NCI-H23 lung): 39.8 µM
GI50 (MDA-MB-231 breast): 5.58 µM
TGI (MDA-MB-231 breast): 20.4 µM
GI50 (SF-268 CNS): 15.8 µM
TGI (SF-268 CNS): 37.7 µM
GI50 (SF-539 CNS): 23.2 µM
TGI (SF-539 CNS): 46.9 µM
GI50 (A549 NSCLC): 33 µM
TGI (A549 NSCLC): > 100 µM

CCCCCCCCCCCOc1ccc(C(=O)C(=O)c2ccc(OCCCCCCCCCCC)c(OCCCCCCCCCCC)c2)cc1OCCCCCCCCCCC
TGI (KM12 colon): > 100 µM
TGI (SNB-75 CNS): 95.7 µM
TGI (UO-31 renal): > 100 µM
TGI (NCI-H23 lung): > 100 µM
TGI (SF-268 CNS): > 100 µM
TGI (SF-539 CNS): > 100 µM
TGI (A549 NSCLC): > 100 µM
TGI (COLO 205 colon): > 100 µM

CCCCOC(=O)C1OC(O[C@H]2CCC3(C)C(CCC4(C)C3CC=C3C5CC(C)(C)CCC5(C(=O)O)CC[C@]34C)C2(C)C)C(OC2OC(CO)C(O)C(O)C2O)C(OC2OC(CO)C(O)C(O)C2O)C1O (some centres undefined)
GI50 (KM12 colon): 30.8 µM
TGI (KM12 colon): 93.5 µM
GI50 (NCI/ADR-RES ovarian): 74 µM
TGI (NCI/ADR-RES ovarian): > 100 µM
GI50 (UO-31 renal): 49.2 µM
TGI (UO-31 renal): > 100 µM
GI50 (NCI-H23 lung): 22.8 µM
TGI (NCI-H23 lung): 47.6 µM
GI50 (MDA-MB-231 breast): 14.5 µM
TGI (MDA-MB-231 breast): 32.2 µM
GI50 (SF-268 CNS): 27.7 µM
TGI (SF-268 CNS): 84.4 µM
GI50 (A549 NSCLC): 34.1 µM
TGI (A549 NSCLC): > 100 µM
GI50 (COLO 205 colon): 20.1 µM
TGI (COLO 205 colon): 52.3 µM

COC(CN1C(=O)c2cccc3cccc(c23)C1=O)OC
TGI (KM12 colon): > 100 µM
TGI (SNB-75 CNS): > 100 µM
TGI (UO-31 renal): > 100 µM
TGI (NCI-H23 lung): > 100 µM
TGI (SF-268 CNS): > 100 µM
TGI (SF-539 CNS): > 100 µM
TGI (A549 NSCLC): > 100 µM
TGI (COLO 205 colon): > 100 µM

N#CCCN(CCC#N)c1ccc(/C=C2\N=C(c3cc([N+](=O)[O-])ccc3Cl)OC2=O)cc1
TGI (KM12 colon): 28.2 µM
TGI (SNB-75 CNS): > 100 µM
TGI (UO-31 renal): > 100 µM
TGI (SF-268 CNS): > 100 µM
TGI (SF-539 CNS): > 100 µM
TGI (A549 NSCLC): > 100 µM

O=C1C2C(C(=O)N1OS(=O)(=O)c1ccccc1)N(Cc1ccccc1)C(=O)N2Cc1ccccc1 (centres undefined)
TGI (KM12 colon): > 100 µM
TGI (SNB-75 CNS): > 100 µM
TGI (UO-31 renal): > 100 µM
TGI (NCI-H23 lung): > 100 µM
TGI (SF-268 CNS): > 100 µM
TGI (SF-539 CNS): > 100 µM
TGI (A549 NSCLC): > 100 µM
TGI (COLO 205 colon): > 100 µM

CC1(C)CCc2c(c3c(c4c(=O)c(O)c(-c5ccc(O)cc5)oc24)OC(C)(C)CC3)O1
GI50 (KM12 colon): > 100 µM
TGI (KM12 colon): > 100 µM
GI50 (SNB-75 CNS): 19.5 µM
TGI (SNB-75 CNS): 41.9 µM
GI50 (NCI/ADR-RES ovarian): 55.7 µM
TGI (NCI/ADR-RES ovarian): > 100 µM
GI50 (UO-31 renal): > 100 µM
TGI (UO-31 renal): > 100 µM
GI50 (NCI-H23 lung): 75.7 µM
TGI (NCI-H23 lung): > 100 µM
GI50 (MDA-MB-231 breast): 28.3 µM
TGI (MDA-MB-231 breast): 84.1 µM
GI50 (SF-268 CNS): 30.5 µM
TGI (SF-268 CNS): > 100 µM
GI50 (A549 NSCLC): > 100 µM
TGI (A549 NSCLC): > 100 µM
GI50 (COLO 205 colon): > 100 µM
TGI (COLO 205 colon): > 100 µM
